Source: ChEMBL document CHEMBL1275599, “Comparison of in vitro activities of fluoroquinolone-like 2,4- and 1,3-diones” (Antimicrob Agents Chemother, 2010)
Converted amounts (≈) assume the structure as drawn.

What was measured:
[1] = Inhibition of DNA decatenation activity of Escherichia coli DNA topoisomerase 4
DNA gyrase subunit A [2] = molecular target: DNA gyrase subunit A (Escherichia coli K-12, UniProt P0AES4, G81C); experiment: Inhibition of DNA supercoiling activity of Escherichia coli DNA gyrase gyrA G81C mutant
Escherichia coli [3] = experiment: Selectivity ratio of IC50 for Escherichia coli DNA gyrase gyrA A67S mutant to IC50 for Escherichia coli wild-type DNA gyrase
DNA gyrase subunit A [4] = molecular target: DNA gyrase subunit A (Escherichia coli K-12, UniProt P0AES4, S83W); experiment: Inhibition of DNA supercoiling activity of Escherichia coli DNA gyrase gyrA S83W mutant
DNA gyrase subunit A [5] = molecular target: DNA gyrase subunit A (Escherichia coli K-12, UniProt P0AES4, A67S); experiment: Inhibition of DNA supercoiling activity of Escherichia coli DNA gyrase gyrA A67S mutant
Escherichia coli [6] = experiment: Selectivity ratio of IC50 for Escherichia coli DNA gyrase gyrA G81C mutant to IC50 for Escherichia coli wild-type DNA gyrase
Escherichia coli [7] = experiment: Ratio of CC3 for Escherichia coli DNA gyrase gyrA A67S mutant to CC3 for Escherichia coli wild-type DNA gyrase
[8] = Inhibition of DNA supercoiling activity of Escherichia coli DNA gyrase
DNA gyrase = DNA gyrase (Staphylococcus aureus, UniProt P0A0K8+P20831); experiment: Inhibition of DNA supercoiling activity of Staphylococcus aureus DNA gyrase; assay type: protein-complex assay
Escherichia coli [9] = experiment: Selectivity index, ratio of IC50 for Escherichia coli Topoisomerase 4 to IC50 for Escherichia coli DNA gyrase
[10] = Inhibition of DNA decatenation activity of Staphylococcus aureus DNA topoisomerase 4
Staphylococcus aureus = experiment: Selectivity index, ratio of IC50 for Staphylococcus aureus Topoisomerase 4 to IC50 for Staphylococcus aureus DNA gyrase
Escherichia coli [11] = experiment: Selectivity ratio of IC50 for Escherichia coli DNA gyrase gyrA S83W mutant to IC50 for Escherichia coli wild-type DNA gyrase
Escherichia coli [12] = experiment: Ratio of CC3 for Escherichia coli DNA gyrase gyrA G81C mutant to CC3 for Escherichia coli wild-type DNA gyrase
Escherichia coli [13] = experiment: Ratio of CC3 for Escherichia coli DNA gyrase gyrA S83W mutant to CC3 for Escherichia coli wild-type DNA gyrase
Escherichia coli [14] = experiment: Antimicrobial activity against Escherichia coli; assay type: functional

**Q.** Which IC50 [1] does the source give for `CC[C@@H]1CCN(c2c(F)cn3c(=O)n(N)c(=O)c(C4CC4)c3c2OC)C1` here?
**A.** 163000 nM

**Q.** And the IC50 (DNA gyrase subunit A [2])?
**A.** 31000 nM

**Q.** And the Ratio IC50 (Escherichia coli [3])?
**A.** 1.7

**Q.** And the IC50 (DNA gyrase subunit A [4])?
**A.** 67000 nM

**Q.** And the IC50 (DNA gyrase subunit A [5])?
**A.** 19000 nM

**Q.** What about the Ratio IC50 (Escherichia coli [6]) of the same molecule?
**A.** 2.8

**Q.** What about the Ratio (Escherichia coli [7]) of the same molecule?
**A.** 1.5

**Q.** What about the IC50 [8] of the same molecule?
**A.** 11000 nM

**Q.** And the IC50 (DNA gyrase)?
**A.** 36500 nM

**Q.** And the Ratio IC50 (Escherichia coli [9])?
**A.** 14.8

**Q.** And the IC50 [10]?
**A.** 48000 nM

**Q.** And the Ratio IC50 (Staphylococcus aureus)?
**A.** 1.3

**Q.** And the Ratio IC50 (Escherichia coli [11])?
**A.** 6.1

**Q.** What about the Ratio (Escherichia coli [12]) of the same molecule?
**A.** 2.3

**Q.** And the Ratio (Escherichia coli [13])?
**A.** 3.4

**Q.** Which results are given for `CC[C@@H]1CCN(c2c(F)cc3c(=O)n(N)c(=O)n(C4CC4)c3c2C)C1`?
**A.** IC50 [1]: 6000 nM; IC50 (DNA gyrase subunit A [2]): 1700 nM; Ratio IC50 (Escherichia coli [3]): 1.3; IC50 (DNA gyrase subunit A [4]): 3800 nM; IC50 (DNA gyrase subunit A [5]): 1200 nM; Ratio IC50 (Escherichia coli [6]): 1.8; Ratio (Escherichia coli [7]): 2.5; IC50 [8]: 950 nM; IC50 (DNA gyrase): 1600 nM; Ratio IC50 (Escherichia coli [9]): 6.3; IC50 [10]: 880 nM; Ratio IC50 (Staphylococcus aureus): 1.8; Ratio IC50 (Escherichia coli [11]): 4; Ratio (Escherichia coli [12]): 3.1; Ratio (Escherichia coli [13]): 5.6

**Q.** For `O=C(O)c1cn(C2CC2)c2cc(N3CCNCC3)c(F)cc2c1=O` [CIPROFLOXACIN], which IC50 [1] is on record?
**A.** 15900 nM

**Q.** And the IC50 [8]?
**A.** 450 nM

**Q.** And the IC50 [10]?
**A.** 8800 nM

**Q.** With `CC[C@@H]1CCN(c2c(F)cc3c(=O)n(N)c(=O)n(C4CC4)c3c2OC)C1` as the molecule, how does the IC50 [1] read?
**A.** 16000 nM

**Q.** What about the IC50 (DNA gyrase subunit A [2]) of the same molecule?
**A.** 4300 nM

**Q.** And the Ratio IC50 (Escherichia coli [3])?
**A.** 0.86

**Q.** What about the IC50 (DNA gyrase subunit A [4]) of the same molecule?
**A.** 5900 nM

**Q.** And the IC50 (DNA gyrase subunit A [5])?
**A.** 2400 nM

**Q.** What about the Ratio IC50 (Escherichia coli [6]) of the same molecule?
**A.** 1.5

**Q.** And the Ratio (Escherichia coli [7])?
**A.** 1.7

**Q.** What about the MIC (Escherichia coli [14]) of the same molecule?
**A.** 2.5 µg/mL (≈ 6.9 µM)

**Q.** And the IC50 [8]?
**A.** 2800 nM

**Q.** And the IC50 (DNA gyrase)?
**A.** 2300 nM

**Q.** And the Ratio IC50 (Escherichia coli [9])?
**A.** 5.7

**Q.** What about the IC50 [10] of the same molecule?
**A.** 5500 nM

**Q.** What about the Ratio IC50 (Staphylococcus aureus) of the same molecule?
**A.** 2.4

**Q.** And the Ratio IC50 (Escherichia coli [11])?
**A.** 2.1

**Q.** What about the Ratio (Escherichia coli [12]) of the same molecule?
**A.** 2.3

**Q.** What about the Ratio (Escherichia coli [13]) of the same molecule?
**A.** 2.1

**Q.** What does the source list for `CC[C@@H]1CCN(c2c(F)cc3c(=O)c(C(=O)O)cn(C4CC4)c3c2OC)C1`?
**A.** IC50 [1]: 1700 nM; IC50 (DNA gyrase subunit A [2]): 1200 nM; Ratio IC50 (Escherichia coli [3]): 0.75; IC50 (DNA gyrase subunit A [4]): 1400 nM; IC50 (DNA gyrase subunit A [5]): 120 nM; Ratio IC50 (Escherichia coli [6]): 7.5; Ratio (Escherichia coli [7]): 1.5; MIC (Escherichia coli [14]): 0.004 µg/mL (≈ 0.0107 µM); IC50 [8]: 160 nM; IC50 (DNA gyrase): 1100 nM; Ratio IC50 (Escherichia coli [9]): 10.6; IC50 [10]: 500 nM; Ratio IC50 (Staphylococcus aureus): 2.2; Ratio IC50 (Escherichia coli [11]): 8.8; Ratio (Escherichia coli [12]): 13; Ratio (Escherichia coli [13]): 6.5
